This passage reports TGI results from PubChem BioAssay (NCI).

Some test systems named below: SF-539 CNS; NCI-H23 lung; HOP-62 NSCLC; MDA-N; LXFL 529 NSCLC; K-562 leukemia; NCI/ADR-RES ovarian; SF-295 CNS; MCF7 breast; T-47D breast; HOP-92 NSCLC; NCI-H460 lung; COLO 205 colon; SF-268 CNS; SNB-19 CNS; MALME-3M melanoma; MOLT-4 leukemia; CAKI-1 renal; IGROV1 ovarian; TK-10 renal.
Common to all, as to assay: NCI-60 cell line screen, 48 h

The structures appear in SMILES notation.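 In this assay, cells in 96-well plates receive the compound at five concentrations for 48 hours. Endpoints are linearly interpolated between the surrounding concentrations. TGI: concentration producing complete growth inhibition.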

Take `CN(C)CC1(Cc2ccccc2)CCC(Cc2ccccc2)C1=O` (configuration not stated): the TGI in the test with SF-539 CNS was determined as 33.5 µM; in the test with NCI-H23 lung, 36.1 µM; in the test with HOP-62 NSCLC, 33 µM; in the test on MDA-N, 25 µM; in the test with LXFL 529 NSCLC, 7.32 µM; in the test with K-562 leukemia, 7.74 µM. The TGI in the test on NCI/ADR-RES ovarian turned out to be 40 µM; with SF-295 CNS it was 31.2 µM; in the test on MCF7 breast, 24.9 µM; with T-47D breast, 51.5 µM; with HOP-92 NSCLC it was 40 µM; in the test with NCI-H460 lung, 30.6 µM. Besides, the TGI in the test with COLO 205 colon came out at 19.4 µM; in the test on SF-268 CNS, 22.6 µM; in the test on SNB-19 CNS, 29.7 µM; in the test on MALME-3M melanoma, 27.2 µM; in the test with MOLT-4 leukemia, 9.11 µM; with CAKI-1 renal, 23.3 µM. Further, the TGI in the test with IGROV1 ovarian was 24.1 µM; with TK-10 renal, 26.7 µM.
Turning to `CSc1nc2c(c(O)c(C)c(=O)n2C2OCC(OC(C)=O)C(OC(C)=O)C2OC(C)=O)c(=O)n1C` (configuration not stated), the TGI with SF-539 CNS, with NCI-H23 lung, with HOP-62 NSCLC, in the test on LXFL 529 NSCLC, in the test with K-562 leukemia and in the test on SF-295 CNS was greater than 100 µM in each case. Also, the TGI in the test on HOP-92 NSCLC, in the test with NCI-H460 lung, in the test on COLO 205 colon, in the test with SF-268 CNS, in the test with SNB-19 CNS and in the test with MALME-3M melanoma was greater than 100 µM each time. Besides, the TGI in the test with MOLT-4 leukemia, in the test with CAKI-1 renal, in the test on IGROV1 ovarian and in the test on TK-10 renal was greater than 100 µM in each case.
Turning to `O=S(=O)(O)c1cc(N=Nc2cc(S(=O)(=O)O)c3cccnc3c2O)ccc1/C=C/c1ccc(N=Nc2cc(S(=O)(=O)O)c3cccnc3c2O)cc1S(=O)(=O)O`, the TGI was greater than 100 µM with SF-539 CNS; greater than 100 µM in the test on NCI-H23 lung; greater than 100 µM with HOP-62 NSCLC; greater than 100 µM in the test on MDA-N; greater than 100 µM in the test with LXFL 529 NSCLC; greater than 89.8 µM in the test with K-562 leukemia. Moreover, the TGI in the test on NCI/ADR-RES ovarian, with SF-295 CNS, in the test on MCF7 breast, in the test with T-47D breast, in the test on HOP-92 NSCLC and in the test with NCI-H460 lung was greater than 100 µM in each case. The TGI is greater than 100 µM in the test on COLO 205 colon; greater than 100 µM in the test with SF-268 CNS; greater than 100 µM in the test on SNB-19 CNS; greater than 100 µM in the test on MALME-3M melanoma; 48.3 µM with MOLT-4 leukemia; greater than 100 µM in the test on CAKI-1 renal. In addition, the TGI with IGROV1 ovarian and in the test with TK-10 renal was greater than 100 µM each time.
For the compound `COC(=O)CCc1cccnc1/C=N/O`, the TGI in the test with SF-539 CNS, with NCI-H23 lung, with HOP-62 NSCLC, with LXFL 529 NSCLC, in the test with K-562 leukemia and in the test on SF-295 CNS was greater than 100 µM each time. Also, the TGI in the test on HOP-92 NSCLC, in the test on NCI-H460 lung, with COLO 205 colon, with SF-268 CNS, in the test on SNB-19 CNS and in the test on MALME-3M melanoma was greater than 100 µM throughout. In addition, the TGI with MOLT-4 leukemia, in the test with CAKI-1 renal, in the test with IGROV1 ovarian and with TK-10 renal was greater than 100 µM throughout.
